The record followed here is publication PMC11267923, “Metagenome-derived SusD-homologs affiliated with Bacteroidota bind to synthetic polymers” (Applied and Environmental Microbiology, 2024).

In test [1] the target is T1, SusD38489 (SusD38489Δ1–25).
T1 construct: gene susD; Sec/SPII signal peptide 1-25 removed; C-terminal His6 from pET21a(+); expressed in E. coli BL21(DE3)
The test is described as follows: SPR, Biacore T200, His-captured protein, single-cycle kinetics, […] fit. More on the design: species or system uncultured Bacteroidota bacterium. The following applies: 25 °C; 0.1 M potassium phosphate pH 7 reference buffer; one binding site. For orientation: In SPR one partner is held on a chip, and binding of the other changes the refractive index at the surface.

The next test deals with T2, SusD1 (SusD1Δ1–22) (Prevotella sp. Sc00044, UniProt W5QTG3).
T2 construct: gene susD; Sec/SPII signal peptide 1-22 removed; C-terminal His6 from pET21a(+); expressed in E. coli BL21(DE3)
T2 sequence (W5QTG3 23-580 limits assumed, stated change not applied): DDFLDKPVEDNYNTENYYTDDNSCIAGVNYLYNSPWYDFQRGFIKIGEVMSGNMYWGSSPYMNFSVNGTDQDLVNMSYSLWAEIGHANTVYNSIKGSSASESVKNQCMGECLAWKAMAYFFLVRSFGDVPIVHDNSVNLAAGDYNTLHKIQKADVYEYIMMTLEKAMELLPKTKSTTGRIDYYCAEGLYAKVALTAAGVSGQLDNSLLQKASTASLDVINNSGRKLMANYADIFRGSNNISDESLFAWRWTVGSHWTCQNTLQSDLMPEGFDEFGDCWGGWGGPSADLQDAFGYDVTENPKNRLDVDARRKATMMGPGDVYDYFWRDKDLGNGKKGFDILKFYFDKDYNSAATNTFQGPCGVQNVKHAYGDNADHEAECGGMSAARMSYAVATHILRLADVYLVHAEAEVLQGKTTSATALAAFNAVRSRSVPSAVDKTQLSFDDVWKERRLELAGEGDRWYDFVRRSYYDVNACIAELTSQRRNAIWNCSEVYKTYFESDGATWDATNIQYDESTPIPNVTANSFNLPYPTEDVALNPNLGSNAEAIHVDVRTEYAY
Described as above. Type of test: binding.

As usually defined, the Kd is the concentration at which binding is half-saturated. A high value points to weaker binding.

In the case of `O=C(OCCO)c1ccc(C(=O)OCCO)cc1` [BHET, Bis(2-Hydroxyethyl) terephthalate], the values for the Kd (in test [1]; at SusD1 (SusD1Δ1–22)) were 10 nM and 0.3 nM, respectively.
